# Measured values from patent US6395906B1, “Intermediates to pesticidal 1-arylpyrazoles” (Rhone-Poulenc Inc., priority 1995, dated 2002).
# Tests used:
# Type in all cases: in vivo
# [1] = test system: western corn rootworm (Diabrotica virgifera virgifera); assay: Western corn rootworm (WCRW) soil test; conditions: soil concentration 0.15 or 0.5 ppm; neonate larvae, mortality six days after infestation
# Protocol: (§1) For the tick, aphids, souther armyworm, tobacco budworm, house fly, Mexican bean beetle, American cockroach, cat flea, souther corn rootworm, western corn rootworm, black cutworm, and southern root-knot nematode, a solution or suspension was prepared by adding the test compound to a solution of dimethylformamide, acetone, emulsifiers which are alkylaryl polyether alcohols organic sulfonates, and water. The result was a 100 or 500 ppm concentration of the test compound.
# For the western corn rootworm test, the water-acetone-DMF-emulsifier solution was adjusted for a treatment rate of 0.15 or 0.5 ppm.
# Western corn rootworm (WCRW): The 500 ppm test formulation was applied to dry sandy loam soil contained in a glass jar for a soil concentration of 0.15 or 0.5 ppm. As an untreated control, an aliquot of a water-acetone-DMF-emulsifier solution containing no test compound was applied in a similar manner. After incubating covered for 24 hours, the soil was mixed and four germinated corn seedlings were added to the jar. Ten neonate western corn rootworm larvae were placed in the jar. Six days after infestation, mortality was assessed by Berlese funnel extraction.
# [2] = test system: cotton aphid (Aphis gossypii); assay: Cotton aphid (CA) foliar spray test; conditions: cotton plants wet to runoff, 100 or 500 ppm; dead aphids counted after three days
# Protocol: as §1
# Buckthorn aphid (BA) or cotton aphid (CA): Adult and nymphal stages of buckthorn or cotton aphid were reared on potted dwarf nasturtium or cotton plants, respectively. Plants infested with 100-150 aphids were wet to runoff with the 100 or 500 ppm test compound formulation. As an untreated control, a water-acetone-DMF-emulsifier solution containing no test compound was also applied to runoff to infested plants. The treated plants were stored for one day for buckthorn aphid and three days for cotton aphid, after which the dead aphids were counted.
# [3] = test system: southern armyworm (Spodoptera eridania); assay: Southern armyworm (SAW) treated bean leaf test; conditions: bean leaves, 100 or 500 ppm; second instar larvae, five days
# Protocol: as §1
# Southern armyworm (SAW), Mexican bean beetle (MBB): Bean leaves were wet to runoff with the 100 or 500 ppm test compound formulation. As an untreated control, a water-acetone-DMF-emulsifier solution containing no test compound was also applied wet to runoff to bean leaves. Five or six randomly selected second instar southern armyworn larvae or Mexican bean bettle larvae were introduced into each plastic container with the dry treated leaves. The container was closed and held for five days. Larvae which were unable to move the length of the body, even upon stimulation by prodding, were considered dead.
# [4] = test system: house fly (Musca domestica); assay: House fly (HF) bait test; conditions: sucrose bait, 100 or 250 ppm; adult flies, mortality after 24 hours
# Protocol: as §1
# For house fly tests, the water-acetone-DMF-emulsifier solution was adjusted with a 20% by weight aqueous solution of sucrose to provide a final 100 or 250 ppm concentration of the test compound.
# House fly (HF): Four to six day old adult house flies were used. The files were immobilized by anesthetizing with carbon dioxide. A bait cup was prepared which contained the 100 or 250 ppm test compound formulation/sucrose solution and one or two absorbent cotton pad(s). As an untreated control, a water-acetone-DMF-emulsifier-sucrose solution containing no test compound was applied in a similar manner. The bait cup was introduced inside the cage prior to admitting 12-25 anesthetized flies. Mortality was assessed after 24 hours.
# [5] = test system: southern corn rootworm (Diabrotica undecimpunctata howardi); assay: Southern corn rootworm (SCRW) soil test; conditions: soil concentration 2.5, 5, 6.75 or 10 ppm; mortality eight days after infestation
# Protocol: as §1
# For southern corn rootworm and black cutworm tests, the water-acetone-DMF-emulsifier solution was adjusted for a treatment rate of 2.5, 5, 6.75 or 10 ppm.
# Southern corn rootworm (SCRW), Black cutworm (BCW): Corn seeds were placed in a glass jar and covered with dry sandy loam soil. The 500 ppm test formulation was applied for a soil concentration of 2.5, 5, 6.75 or 10 ppm. As an untreated control, an aliquot of a water-acetone-DMF-emulsifier solution containing no test compound was applied in a similar manner. After incubating covered for 24 hours, the soil was mixed and inoculated with approximately 25 southern corn rootworm eggs. Following an additional 48 hours, two late second to early third instar black cutworms were placed in the jar with a portion of insect diet. Eight days after infestation, mortality was assessed visually for cutworm and by Berlese funnel extraction for rootworm.
# [6] = test system: tobacco budworm (Heliothis virescens); assay: Tobacco budworm (TBW) treated cotton leaf test; conditions: cotton leaves, 100 ppm; second instar larvae, five days
# Protocol: as §1
# Tobacco budworm (TBW): Cotton leaves were wet to runoff with the 100 ppm test compound formulation. As an untreated control, a water-acetone-DMF-emulsifier solution containing no test compound was also applied wet to runoff to cotton leaves. Ten randomly selected second instar tobacco budworm larvae were introduced into plastic containers in which moist dental wicks and the dry treated leaves had been placed. The cups were closed and held for five days. Larvae which were unable to move the length of the body, even upon stimulation by prodding, were considered dead.
# [7] = test system: American cockroach (Periplaneta americana); assay: American cockroach (ACR) treated food pellet test; conditions: food pellets with 500 ppm formulation; nymphs, contact and feeding mortality 1 and 5 days after infestation
# Protocol: as §1
# American cockroach (ACR): Cat food or dog food pellets were added to jars containing 1-2 mls of the 500 ppm test formulation. As an untreated control, an aliquot of a water-acetone-DMF-emulsifier solution containing no test compound was applied in a similar manner. After 48 hours, roach nymphs were added to the jar. Contact and feeding mortally was assessed 1 and 5 days after infestation.
# [8] = test system: southern root-knot nematode (Meloidogyne incognita); assay: Southern root-knot nematode (SRKN) soil test; conditions: soil treatment 23 kg/ha; tomato or cotton root galling rated after 2-3 weeks
# Protocol: as §1
# For the southern root-knot nematode tests, the water-acetone-DMF-emulsifier solution was adjusted for a treatment rate of 23 kg/ha soil concentration.
# Southern root-knot nematode (SRKN): Eggs and second stage juveniles (J2s) of southern root-knot nematodes were obtained from infected roots of reared tomato plants. Pots containing moist soil were treated with the test compound solution for a treatment rate of 23 kg/ha. As an untreated control, an aliquot of a water-acetone-DMF-emulsifier solution containing no test compound was applied in a similar manner. Immediately after treatment, eggs or J2s of southern root-knot nematode were added to the treated soil. For test with cotton, the seeds were placed on top of the soil the day of treatment and inoculation. For the tests with tomato, the seedlings were transplanted in the pot three days after treatment. The pots were kept in the greenhouse for 2-3 weeks. At the termination of the test, roots of the tomato or cotton seedlings were evaluated for galling on a rating scale from 1 to 5 with one equal to severe galling, relative to untreated control, and five to no galling, i.e., complete control.
SMILES,WCRW [1],CA [2],SAW [3],HF [4],SCRW [5],TBW [6],ACR [7],SRKN [8]
"N#Cc1nn(-c2c(Cl)cc(C(F)(F)F)cc2Cl)c(C=O)c1SC(F)(F)F [Compound 2, 3-Cyano-1-(2,6-dichloro-4-trifluoromethylphenyl)-5-formyl-4-trifluoromethylthiopyrazole]",+ (active against 1 or more insects described above up to 100% mortality. This activity is indicated by a “+”),,,,,,,
"COC(OC)c1c(SC(F)(F)F)c(C#N)nn1-c1c(Cl)cc(C(F)(F)F)cc1Cl [Compound 4, 3-Cyano-1-(2,6-dichloro-4-trifluoromethylphenyl)-5-dimethoxymethyl-4-trifluoromethylthiopyrazole]",+ (active against 1 or more insects described above up to 100% mortality. This activity is indicated by a “+”),,,,,,,
"COC(C#N)c1c(SC(F)(F)F)c(C#N)nn1-c1c(Cl)cc(C(F)(F)F)cc1Cl (stereo not shown) [Compound 6, 3-Cyano-5-{(1-cyano-1-methoxy)methyl}-1-(2,6-dichloro-4-trifluoromethylphenyl)-4-trifluoromethylthiopyrazole]",+ (active against 1 or more insects described above up to 100% mortality. This activity is indicated by a “+”),+ (active against 1 or more insects described above up to 100% mortality. This activity is indicated by a “+”),+ (active against 1 or more insects described above up to 100% mortality. This activity is indicated by a “+”),+ (active against 1 or more insects described above up to 100% mortality. This activity is indicated by a “+”),+ (active against 1 or more insects described above up to 100% mortality. This activity is indicated by a “+”),,,
"CN(C)N=Cc1c(SC(F)(F)F)c(C#N)nn1-c1c(Cl)cc(C(F)(F)F)cc1Cl [Compound 11, 3-Cyano-1-(2,6-dichloro-4-trifluoromethylphenyl)-5-(N,N-dimethylaminoiminomethylidenyl)-4-trifluoromethylthiopyrazole]",+ (active against 1 or more insects described above up to 100% mortality. This activity is indicated by a “+”),,,+ (active against 1 or more insects described above up to 100% mortality. This activity is indicated by a “+”),+ (active against 1 or more insects described above up to 100% mortality. This activity is indicated by a “+”),,,
"COC(OC)c1c([S+]([O-])C(F)(F)F)c(C#N)nn1-c1c(Cl)cc(C(F)(F)F)cc1Cl (stereo not shown) [Compound 13, 3-Cyano-1-(2,6-dichloro-4-trifluoromethylphenyl)-5-dimethoxymethyl-4-trifluoromethylsulfinylpyrazole]",+ (active against 1 or more insects described above up to 100% mortality. This activity is indicated by a “+”),+ (active against 1 or more insects described above up to 100% mortality. This activity is indicated by a “+”),,,,+ (active against 1 or more insects described above up to 100% mortality. This activity is indicated by a “+”),+ (active against 1 or more insects described above up to 100% mortality. This activity is indicated by a “+”),+ (active against 1 or more insects described above up to 100% mortality. This activity is indicated by a “+”)
"COC(OC)c1c(S(=O)(=O)C(F)(F)F)c(C#N)nn1-c1c(Cl)cc(C(F)(F)F)cc1Cl [Compound 15, 3-Cyano-1-(2,6-dichloro-4-trifluoromethlphenyl)-5-dimethoxymethyl-4-trifluoromethylsulfonylpyrazole]",+ (active against 1 or more insects described above up to 100% mortality. This activity is indicated by a “+”),+ (active against 1 or more insects described above up to 100% mortality. This activity is indicated by a “+”),+ (active against 1 or more insects described above up to 100% mortality. This activity is indicated by a “+”),+ (active against 1 or more insects described above up to 100% mortality. This activity is indicated by a “+”),+ (active against 1 or more insects described above up to 100% mortality. This activity is indicated by a “+”),,+ (active against 1 or more insects described above up to 100% mortality. This activity is indicated by a “+”),+ (active against 1 or more insects described above up to 100% mortality. This activity is indicated by a “+”)
"COC(C#N)c1c(S(=O)(=O)C(F)(F)F)c(C#N)nn1-c1c(Cl)cc(C(F)(F)F)cc1Cl (stereo not shown) [Compound 16, 3-Cyano-5-{(1-cyano-1-methoxy)methyl}-1-(2,6-dichloro-4-trifluoromethylphenyl)-4-trifluoromethylsulfonylpyrazole]",+ (active against 1 or more insects described above up to 100% mortality. This activity is indicated by a “+”),,+ (active against 1 or more insects described above up to 100% mortality. This activity is indicated by a “+”),+ (active against 1 or more insects described above up to 100% mortality. This activity is indicated by a “+”),+ (active against 1 or more insects described above up to 100% mortality. This activity is indicated by a “+”),+ (active against 1 or more insects described above up to 100% mortality. This activity is indicated by a “+”),+ (active against 1 or more insects described above up to 100% mortality. This activity is indicated by a “+”),
